{"source": "PubChem BioAssay AID2060511", "about": "(Molecular Pharmacology Branch, DTP, NCI, 2025)", "tested_on": "422866-222-R5-J1-PDC spheroids with HUVEC/MSC, viability", "experiment": "Anticancer human tumor 422866-222-R5-J1-PDC patient-derived pancreatic adenocarcinoma cell line growth inhibition [GQUAD]", "details": "for IC50: curve of first compound; for viability, T/C: stronger effect = lower value", "procedure,_shortened": "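Tumor cells were grown as complex spheroids with HUVEC endothelial cells and mesenchymal stem cells as stroma. G-quadruplex stabilizers were combined with targeted agents over half-log dilutions from near the clinical Cmax, or from 10 microM.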", "key": {"[1]": {"details": "second compound 0.0316 µM, first compound 0.0316 µM"}, "[2]": {"details": "second compound 0.0316 µM, first compound 0.1 µM"}, "[3]": {"details": "second compound 0.0316 µM, first compound 0.316 µM"}, "[4]": {"details": "second compound 0.0316 µM, first compound 1 µM"}, "[5]": {"details": "second compound 0.0316 µM, first compound 3.16 µM"}, "[6]": {"details": "second compound 0.0316 µM, first compound 10 µM"}, "[7]": {"details": "second compound 0.1 µM, first compound 0.0316 µM"}, "[8]": {"details": "second compound 0.1 µM, first compound 0.1 µM"}, "[9]": {"details": "second compound 0.1 µM, first compound 0.316 µM"}, "[10]": {"details": "second compound 0.1 µM, first compound 1 µM"}, "[11]": {"details": "second compound 0.1 µM, first compound 3.16 µM"}, "[12]": {"details": "second compound 0.1 µM, first compound 10 µM"}, "[13]": {"details": "second compound 0.316 µM, first compound 0.0316 µM"}, "[14]": {"details": "second compound 0.316 µM, first compound 0.1 µM"}, "[15]": {"details": "second compound 0.316 µM, first compound 0.316 µM"}, "[16]": {"details": "second compound 0.316 µM, first compound 1 µM"}, "[17]": {"details": "second compound 0.316 µM, first compound 3.16 µM"}, "[18]": {"details": "second compound 0.316 µM, first compound 10 µM"}, "[19]": {"details": "second compound 1 µM, first compound 0.0316 µM"}, "[20]": {"details": "second compound 1 µM, first compound 0.1 µM"}, "[21]": {"details": "second compound 1 µM, first compound 0.316 µM"}, "[22]": {"details": "second compound 1 µM, first compound 1 µM"}, "[23]": {"details": "second compound 1 µM, first compound 3.16 µM"}, "[24]": {"details": "second compound 1 µM, first compound 10 µM"}, "[25]": {"details": "second compound 3.16 µM, first compound 0.0316 µM"}, "[26]": {"details": "second compound 3.16 µM, first compound 0.1 µM"}, "[27]": {"details": "second compound 3.16 µM, first compound 0.316 µM"}, "[28]": {"details": "second compound 3.16 µM, first compound 1 µM"}, "[29]": {"details": "second compound 3.16 µM, first compound 3.16 µM"}, "[30]": {"details": "second compound 3.16 µM, first compound 10 µM"}, "[31]": {"details": "second compound 10 µM, first compound 0.0316 µM"}, "[32]": {"details": "second compound 10 µM, first compound 0.1 µM"}, "[33]": {"details": "second compound 10 µM, first compound 0.316 µM"}, "[34]": {"details": "second compound 10 µM, first compound 1 µM"}, "[35]": {"details": "second compound 10 µM, first compound 3.16 µM"}, "[36]": {"details": "second compound 10 µM, first compound 10 µM"}}}
{"compound": "C#Cc1c(F)ccc2cc(O)cc(-c3ncc4c(N5CC6CCC(C5)N6)nc(OCC56CCCN5CC(F)C6)nc4c3F)c12", "note": "(centres undefined) + Cc1cnc(CNC(=O)c2c(=O)c3ccc(N4CCCN(C)CC4)nc3n3c2sc2ccccc23)cn1;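 note: spheroids exposed to compounds for seven days before reading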;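 for viability, T/C: percent viability relative to DMSO vehicle control taken as 100%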", "values": [{"measurement": "IC50", "setting": "second compound 0.0316 µM", "result": 1.76, "unit": "µM"}, {"measurement": "IC50", "setting": "second compound 0.1 µM", "result": 1.41, "unit": "µM"}, {"measurement": "IC50", "setting": "second compound 0.316 µM", "result": 3.22, "unit": "µM"}, {"measurement": "IC50", "setting": "second compound 1 µM", "result": 3.46, "unit": "µM"}, {"measurement": "IC50", "setting": "second compound 3.16 µM", "result": 2.32, "unit": "µM"}, {"measurement": "IC50", "setting": "second compound 10 µM", "result": 1.36, "unit": "µM"}, {"measurement": "viability, T/C", "setting": "[1]", "result": 95.9, "unit": "%"}, {"measurement": "viability, T/C", "setting": "[2]", "result": 87, "unit": "%"}, {"measurement": "viability, T/C", "setting": "[3]", "result": 72, "unit": "%"}, {"measurement": "viability, T/C", "setting": "[4]", "result": 57.1, "unit": "%"}, {"measurement": "viability, T/C", "setting": "[5]", "result": 43, "unit": "%"}, {"measurement": "viability, T/C", "setting": "[6]", "result": 29.5, "unit": "%"}, {"measurement": "viability, T/C", "setting": "[7]", "result": 98.4, "unit": "%"}, {"measurement": "viability, T/C", "setting": "[8]", "result": 97.9, "unit": "%"}, {"measurement": "viability, T/C", "setting": "[9]", "result": 69.7, "unit": "%"}, {"measurement": "viability, T/C", "setting": "[10]", "result": 55.3, "unit": "%"}, {"measurement": "viability, T/C", "setting": "[11]", "result": 42.5, "unit": "%"}, {"measurement": "viability, T/C", "setting": "[12]", "result": 30.7, "unit": "%"}, {"measurement": "viability, T/C", "setting": "[13]", "result": 97, "unit": "%"}, {"measurement": "viability, T/C", "setting": "[14]", "result": 79.4, "unit": "%"}, {"measurement": "viability, T/C", "setting": "[15]", "result": 75.4, "unit": "%"}, {"measurement": "viability, T/C", "setting": "[16]", "result": 65.6, "unit": "%"}, {"measurement": "viability, T/C", "setting": "[17]", "result": 49.8, "unit": "%"}, {"measurement": "viability, T/C", "setting": "[18]", "result": 36.1, "unit": "%"}, {"measurement": "viability, T/C", "setting": "[19]", "result": 95.8, "unit": "%"}, {"measurement": "viability, T/C", "setting": "[20]", "result": 86.3, "unit": "%"}, {"measurement": "viability, T/C", "setting": "[21]", "result": 73.6, "unit": "%"}, {"measurement": "viability, T/C", "setting": "[22]", "result": 57.4, "unit": "%"}, {"measurement": "viability, T/C", "setting": "[23]", "result": 55, "unit": "%"}, {"measurement": "viability, T/C", "setting": "[24]", "result": 39.7, "unit": "%"}, {"measurement": "viability, T/C", "setting": "[25]", "result": 77.4, "unit": "%"}, {"measurement": "viability, T/C", "setting": "[26]", "result": 85.1, "unit": "%"}, {"measurement": "viability, T/C", "setting": "[27]", "result": 78.8, "unit": "%"}, {"measurement": "viability, T/C", "setting": "[28]", "result": 58.2, "unit": "%"}, {"measurement": "viability, T/C", "setting": "[29]", "result": 49.7, "unit": "%"}, {"measurement": "viability, T/C", "setting": "[30]", "result": 37, "unit": "%"}, {"measurement": "viability, T/C", "setting": "[31]", "result": 70.5, "unit": "%"}, {"measurement": "viability, T/C", "setting": "[32]", "result": 82, "unit": "%"}, {"measurement": "viability, T/C", "setting": "[33]", "result": 73, "unit": "%"}, {"measurement": "viability, T/C", "setting": "[34]", "result": 52.4, "unit": "%"}, {"measurement": "viability, T/C", "setting": "[35]", "result": 43.3, "unit": "%"}, {"measurement": "viability, T/C", "setting": "[36]", "result": 34.4, "unit": "%"}]}
{"compound": "CC(=O)O[C@H]1C(=O)[C@@]2(C)[C@H]([C@H](OC(=O)c3ccccc3)[C@]3(O)C[C@H](OC(=O)[C@H](O)[C@@H](NC(=O)c4ccccc4)c4ccccc4)C(C)=C1C3(C)C)[C@]1(OC(C)=O)CO[C@@H]1C[C@@H]2O", "note": "+ Cc1cnc(CNC(=O)c2c(=O)c3ccc(N4CCCN(C)CC4)nc3n3c2sc2ccccc23)cn1", "values": [{"measurement": "IC50", "setting": "second compound 0.0316 µM", "result": "> 10", "unit": "µM"}, {"measurement": "IC50", "setting": "second compound 0.1 µM", "result": "> 10", "unit": "µM"}, {"measurement": "IC50", "setting": "second compound 0.316 µM", "result": "> 10", "unit": "µM"}, {"measurement": "IC50", "setting": "second compound 1 µM", "result": "> 10", "unit": "µM"}, {"measurement": "IC50", "setting": "second compound 3.16 µM", "result": "> 10", "unit": "µM"}, {"measurement": "IC50", "setting": "second compound 10 µM", "result": "> 10", "unit": "µM"}, {"measurement": "viability, T/C", "setting": "[1]", "result": 81, "unit": "%"}, {"measurement": "viability, T/C", "setting": "[2]", "result": 67.2, "unit": "%"}, {"measurement": "viability, T/C", "setting": "[3]", "result": 80.3, "unit": "%"}, {"measurement": "viability, T/C", "setting": "[4]", "result": 71.9, "unit": "%"}, {"measurement": "viability, T/C", "setting": "[5]", "result": 73.8, "unit": "%"}, {"measurement": "viability, T/C", "setting": "[6]", "result": 91.6, "unit": "%"}, {"measurement": "viability, T/C", "setting": "[7]", "result": 88, "unit": "%"}, {"measurement": "viability, T/C", "setting": "[8]", "result": 86.3, "unit": "%"}, {"measurement": "viability, T/C", "setting": "[9]", "result": 77.1, "unit": "%"}, {"measurement": "viability, T/C", "setting": "[10]", "result": 86.2, "unit": "%"}, {"measurement": "viability, T/C", "setting": "[11]", "result": 95.5, "unit": "%"}, {"measurement": "viability, T/C", "setting": "[12]", "result": 97.4, "unit": "%"}, {"measurement": "viability, T/C", "setting": "[13]", "result": 89.5, "unit": "%"}, {"measurement": "viability, T/C", "setting": "[14]", "result": 82.8, "unit": "%"}, {"measurement": "viability, T/C", "setting": "[15]", "result": 85.3, "unit": "%"}, {"measurement": "viability, T/C", "setting": "[16]", "result": 107, "unit": "%"}, {"measurement": "viability, T/C", "setting": "[17]", "result": 115, "unit": "%"}, {"measurement": "viability, T/C", "setting": "[18]", "result": 117, "unit": "%"}, {"measurement": "viability, T/C", "setting": "[19]", "result": 79.2, "unit": "%"}, {"measurement": "viability, T/C", "setting": "[20]", "result": 74.6, "unit": "%"}, {"measurement": "viability, T/C", "setting": "[21]", "result": 86.5, "unit": "%"}, {"measurement": "viability, T/C", "setting": "[22]", "result": 94.5, "unit": "%"}, {"measurement": "viability, T/C", "setting": "[23]", "result": 117, "unit": "%"}, {"measurement": "viability, T/C", "setting": "[24]", "result": 119, "unit": "%"}, {"measurement": "viability, T/C", "setting": "[25]", "result": 83.3, "unit": "%"}, {"measurement": "viability, T/C", "setting": "[26]", "result": 94.5, "unit": "%"}, {"measurement": "viability, T/C", "setting": "[27]", "result": 94.1, "unit": "%"}, {"measurement": "viability, T/C", "setting": "[28]", "result": 91.7, "unit": "%"}, {"measurement": "viability, T/C", "setting": "[29]", "result": 118, "unit": "%"}, {"measurement": "viability, T/C", "setting": "[30]", "result": 107, "unit": "%"}, {"measurement": "viability, T/C", "setting": "[31]", "result": 80.1, "unit": "%"}, {"measurement": "viability, T/C", "setting": "[32]", "result": 78.8, "unit": "%"}, {"measurement": "viability, T/C", "setting": "[33]", "result": 71.6, "unit": "%"}, {"measurement": "viability, T/C", "setting": "[34]", "result": 101, "unit": "%"}, {"measurement": "viability, T/C", "setting": "[35]", "result": 104, "unit": "%"}, {"measurement": "viability, T/C", "setting": "[36]", "result": 123, "unit": "%"}]}
